≈ marks a conversion by molar mass, not a printed value. Where “and” joins values, the source holds several entries; their conditions need not be identical. Identical values can stand only once.
Key:
[1] = target: T1, Sensor histidine kinase WalK (Bacillus subtilis (strain 168), UniProt Q45614); experiment: Inhibition of Bacillus subtilis histidine kinase YycG
T1 sequence (Q45614 whole entry): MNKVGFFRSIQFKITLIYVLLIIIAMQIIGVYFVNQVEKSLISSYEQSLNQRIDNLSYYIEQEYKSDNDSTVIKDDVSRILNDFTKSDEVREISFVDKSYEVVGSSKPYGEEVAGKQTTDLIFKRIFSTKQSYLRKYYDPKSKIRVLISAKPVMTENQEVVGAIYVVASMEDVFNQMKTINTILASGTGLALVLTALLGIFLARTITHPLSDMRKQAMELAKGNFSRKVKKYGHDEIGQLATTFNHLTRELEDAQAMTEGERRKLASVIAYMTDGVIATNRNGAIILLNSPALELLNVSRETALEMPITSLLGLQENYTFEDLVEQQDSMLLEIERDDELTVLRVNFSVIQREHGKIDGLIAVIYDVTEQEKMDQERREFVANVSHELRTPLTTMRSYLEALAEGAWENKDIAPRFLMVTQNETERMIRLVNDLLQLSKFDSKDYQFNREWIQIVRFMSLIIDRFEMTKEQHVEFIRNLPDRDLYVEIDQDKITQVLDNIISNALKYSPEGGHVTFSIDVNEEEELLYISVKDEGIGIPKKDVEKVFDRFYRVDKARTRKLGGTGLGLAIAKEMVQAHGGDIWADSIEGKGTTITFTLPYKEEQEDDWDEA

[2] = test system: Enterococcus faecalis; experiment: Antibacterial activity against vancomycin-resistant Enterococcus faecalis NCTC-12201 after 18 hrs by broth microdilution method; format: functional
[3] = test system: Staphylococcus aureus; experiment: Antibacterial activity against methicillin-resistant staphylococcus aureus 870307 after 18 hrs by broth microdilution method; format: functional

| Compound | IC50 [1] | MIC [2] [mg/L] | MIC [3] [mg/L] |
| --- | --- | --- | --- |
| COC(=O)[C@H](CC(C)C)NC(=O)/C=C/C(C)(C)C/C=C(\C)CC/C=C(\C)Br | > 1130 µM | > 100 | > 100 |
| CCCCN(CCCC)C(=O)/C=C/C(C)(C)C/C=C(\C)CC/C=C(\C)Br | > 1170 µM | > 100 | > 100 |
| COC(=O)[C@H](Cc1cnc[nH]1)NC(=O)/C=C/C(C)(C)C/C=C(\C)CC/C=C(\C)Br | > 1070 µM | > 100 | > 100 |
| CSCC[C@H](NC(=O)/C=C/C(C)(C)C/C=C(\C)CC/C=C(\C)Br)C(=O)O | < 560 µM | > 100 | > 100 |
| C/C(Br)=C\CC/C(C)=C/CC(C)(C)/C=C/C(=O)N[C@@H](Cc1c[nH]c2ccccc12)C(=O)O | 43.9 µM | 50 (≈ 99.7 µM) | 100 (≈ 199 µM) |
| COC(=O)[C@H](Cc1c[nH]c2ccccc12)NC(=O)/C=C/C(C)(C)C/C=C(\C)CC/C=C(\C)Br | > 970 µM | > 100 | > 100 |
| COC(=O)[C@@H](NC(=O)/C=C/C(C)(C)C/C=C(\C)CC/C=C(\C)Br)C(C)C | > 1170 µM | > 100 | > 100 |
| COC(=O)[C@H](Cc1ccc(O)cc1)NC(=O)/C=C/C(C)(C)C/C=C(\C)CC/C=C(\C)Br | > 1020 µM | > 100 | > 100 |
| C/C(Br)=C\CC/C(C)=C/CC(C)(C)/C=C/C(=O)N[C@@H](CC(C)C)C(=O)O | > 1170 µM | > 100 | > 100 |
| C/C(Br)=C\CC/C(C)=C/CC(C)(C)/C=C/C(=O)N1CCC[C@H]1C(=O)O | < 606 µM | > 100 | > 100 |
| COC(=O)CNC(=O)/C=C/C(C)(C)C/C=C(\C)CC/C=C(\C)Br | > 1290 µM | > 100 | > 100 |
| C/C(Br)=C\CC/C(C)=C/CC(C)(C)/C=C/C(=O)O | 63.4 µM and 63.5 µM | > 100 | > 100 |
| COC(=O)[C@@H]1CCCN1C(=O)/C=C/C(C)(C)C/C=C(\C)CC/C=C(\C)Br | < 586 µM | > 100 | > 100 |
| C/C(Br)=C\CC/C(C)=C/CC(C)(C)/C=C/C(=O)N[C@@H](Cc1ccccc1)C(=O)O | < 541 µM | > 100 | > 100 |
| COC(=O)[C@H](CO)NC(=O)/C=C/C(C)(C)C/C=C(\C)CC/C=C(\C)Br | < 600 µM | > 100 | > 100 |
| CC[C@H](C)[C@H](NC(=O)/C=C/C(C)(C)C/C=C(\C)CC/C=C(\C)Br)C(=O)O | > 1170 µM | > 100 | > 100 |
| C/C(Br)=C\CC/C(C)=C/CC(C)(C)/C=C/C(=O)N[C@@H](CC(=O)O)C(=O)O | < 581 µM | > 100 | > 100 |
| C/C(Br)=C\CC/C(C)=C/CC(C)(C)/C=C/C(=O)N[C@@H](CCC(N)=O)C(=O)O | < 564 µM | > 100 | > 100 |
| COC(=O)[C@H](CCC(N)=O)NC(=O)/C=C/C(C)(C)C/C=C(\C)CC/C=C(\C)Br | 1090 µM | > 100 | > 100 |
| CCCCCCCCOC(=O)/C=C/C(C)(C)C/C=C(\C)CC/C=C(\C)Br | > 1170 µM | > 100 | > 100 |
| C/C(Br)=C\CC/C(C)=C/CC(C)(C)/C=C/C(=O)N[C@@H](CO)C(=O)O | < 621 µM | > 100 | > 100 |

| Compound | IC50 [1] | MIC [2] [mg/L] | MIC [3] [mg/L] |
| --- | --- | --- | --- |
| COC(=O)[C@@H](NC(=O)/C=C/C(C)(C)C/C=C(\C)CC/C=C(\C)Br)[C@@H](C)O | > 1160 µM | > 100 | > 100 |
| C/C(Br)=C\CC/C(C)=C/CC(C)(C)/C=C/C(=O)NCC(=O)O | < 671 µM | > 100 | > 100 |
| C/C(Br)=C\CC/C(C)=C/CC(C)(C)/C=C/C(=O)N[C@@H](Cc1cnc[nH]1)C(=O)O | < 553 µM | > 100 | > 100 |
| CC[C@H](C)[C@H](NC(=O)/C=C/C(C)(C)C/C=C(\C)CC/C=C(\C)Br)C(=O)OC | > 1130 µM | > 100 | > 100 |
| C/C(Br)=C\CC/C(C)=C/CC(C)(C)/C=C/C(=O)N[C@H](C(=O)O)C(C)C | < 603 µM | > 100 | > 100 |
| COC(=O)[C@H](CCSC)NC(=O)/C=C/C(C)(C)C/C=C(\C)CC/C=C(\C)Br | > 1090 µM | > 100 | > 100 |
| COC(=O)[C@H](CC(N)=O)NC(=O)/C=C/C(C)(C)C/C=C(\C)CC/C=C(\C)Br | 1130 µM | > 100 | > 100 |
| COC(=O)[C@H](CC(=O)O)NC(=O)/C=C/C(C)(C)C/C=C(\C)CC/C=C(\C)Br | > 1130 µM | > 100 | > 100 |
| C/C(Br)=C\CC/C(C)=C/CC(C)(C)/C=C/CO | > 1660 µM | > 100 | > 100 |
| C/C1=C\CC(C)(C)/C=C/C(=O)/C(C)=C/CC1 [ZERUMBONE] | > 2290 µM | > 100 | > 100 |
| COC(=O)[C@H](CCC(=O)O)NC(=O)/C=C/C(C)(C)C/C=C(\C)CC/C=C(\C)Br | > 1090 µM | > 100 | > 100 |
| C/C(Br)=C\CC/C(C)=C/CC(C)(C)/C=C/C(=O)N[C@H](C(=O)O)[C@@H](C)O | > 1200 µM | > 100 | > 100 |
| C/C(Br)=C\CC/C(C)=C/CC(C)(C)/C=C/C(=O)N[C@@H](Cc1ccc(O)cc1)C(=O)O | < 523 µM | > 100 | > 100 |
| COC(=O)[C@H](C)NC(=O)/C=C/C(C)(C)C/C=C(\C)CC/C=C(\C)Br | > 1250 µM | > 100 | > 100 |
| COC(=O)[C@H](Cc1ccccc1)NC(=O)/C=C/C(C)(C)C/C=C(\C)CC/C=C(\C)Br | > 1050 µM | > 100 | > 100 |
| C/C(Br)=C\CC/C(C)=C/CC(C)(C)/C=C/C(=O)N[C@@H](CCC(=O)O)C(=O)O | < 563 µM | > 100 | > 100 |
| COC(=O)/C=C/C(C)(C)C/C=C(\C)CC/C=C(\C)Br | > 1520 µM | > 100 | > 100 |
| C/C(Br)=C\CC/C(C)=C/CC(C)(C)/C=C/C(=O)N[C@@H](CC(N)=O)C(=O)O | < 582 µM | > 100 | > 100 |
| C/C(Br)=C\CC/C(C)=C/CC(C)(C)/C=C/C(=O)N1CCCCC1 | > 1310 µM | > 100 | > 100 |
| C/C(Br)=C\CC/C(C)=C/CC(C)(C)/C=C/C(=O)N[C@@H](C)C(=O)O | < 647 µM | > 100 | > 100 |
| CCCCCCCCN(CCCCCCCC)C(=O)/C=C/C(C)(C)C/C=C(\C)CC/C=C(\C)Br | > 928 µM | > 100 | > 100 |

Reference: ChEMBL document CHEMBL1139052, “Synthesis of a novel inhibitor against MRSA and VRE: preparation from zerumbone ring opening material showing histidine-kinase inhibition” (Bioorg Med Chem Lett, 2007)
